In patent US8153561B2, “Limonene-containing herbicide compositions, herbicide concentrate formulations and methods for making and using same for organic production” (Cutting Edge Formulations, Inc., priority 2005, dated 2012):

Tested on: common lambsquarters
Assay: Field trial Zellwood, Fla.: damage rating on common lambsquarters, sprayed until runoff
Type: in vivo
Conditions: commercial burn down standard; improved by Day 3
Method: FIG. 7 is a bar graph setting forth results from a field study on lambsquarters conducted in Florida in January of 2005. Ratings are based on 0 to 10 (no damage to dead). Statistical analysis is by Duncan's MRT (P<0.05).
A field trial was conducted in Zellwood, Fla. The same formulation described in Example 1 was used in the Florida trial. All limonene treatments were made at a 3:1 ratio by volume, represented as water:herbicide formulation ratio, to provide a herbicide composition of 22% limonene (w/w %). Four reps per treatment were used; all treatments were randomly distributed within a rep. The weed species was common lambsquarters (1 to 2 feet in height). Treatments applied were pH 3, 7, 8 and 9 with and without a silicone surfactant, Silwet; each treatment was sprayed until runoff. The commercial burn down standard, Gramoxone (Paraquat) was included. Readings were taken at 1 and 2 hours, and 1, 3 and 7 days. […] Effects with Gramoxone (Paraquat) were first observed on day 1 and improved by Day 3. After the first 2 hours limonene effects were stabilized.

With C[n+]1ccc(-c2cc[n+](C)cc2)cc1 [Gramoxone, Paraquat] the effects first observed was 1 days.
